Data as given in ChEMBL document CHEMBL1145498, “A systematic interaction map of validated kinase inhibitors with Ser/Thr kinases” (Proc Natl Acad Sci U S A, 2007).

Key:
[1] = target: Death-associated protein kinase 3 (Homo sapiens) (UniProt O43293)
[2] = target: T1, Serine/threonine-protein kinase VRK1 (Homo sapiens) (UniProt Q99986)
T1 sequence (whole entry): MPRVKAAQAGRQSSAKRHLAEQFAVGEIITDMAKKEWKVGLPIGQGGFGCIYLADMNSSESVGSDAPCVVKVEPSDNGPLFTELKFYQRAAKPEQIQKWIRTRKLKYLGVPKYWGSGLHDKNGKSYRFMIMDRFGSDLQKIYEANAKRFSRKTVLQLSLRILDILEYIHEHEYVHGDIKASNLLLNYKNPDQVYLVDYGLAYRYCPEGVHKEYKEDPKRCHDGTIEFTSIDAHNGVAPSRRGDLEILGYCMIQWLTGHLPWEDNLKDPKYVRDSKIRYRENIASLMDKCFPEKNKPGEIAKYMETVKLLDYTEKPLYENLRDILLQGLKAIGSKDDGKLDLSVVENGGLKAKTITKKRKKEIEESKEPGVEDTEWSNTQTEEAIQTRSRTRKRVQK

[3] = target: Serine/threonine-protein kinase 16 (Homo sapiens) (UniProt O75716)
[4] = target: Mitogen-activated protein kinase 11 (Homo sapiens, UniProt Q15759)
Mitogen-activated protein kinase 11, sequence (Q15759 whole entry): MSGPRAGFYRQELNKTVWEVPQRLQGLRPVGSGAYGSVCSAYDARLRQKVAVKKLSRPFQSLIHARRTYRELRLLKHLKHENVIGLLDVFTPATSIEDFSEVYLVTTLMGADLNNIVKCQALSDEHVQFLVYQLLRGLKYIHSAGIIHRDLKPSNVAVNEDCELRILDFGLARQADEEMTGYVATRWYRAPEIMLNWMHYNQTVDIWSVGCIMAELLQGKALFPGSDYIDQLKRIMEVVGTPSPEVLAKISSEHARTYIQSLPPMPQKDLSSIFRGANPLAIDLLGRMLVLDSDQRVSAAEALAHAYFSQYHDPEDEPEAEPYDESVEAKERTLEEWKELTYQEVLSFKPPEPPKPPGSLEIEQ

[5] = target: Dual specificity protein kinase CLK2 (Homo sapiens) (UniProt P49760)
[6] = target: Serine/threonine-protein kinase VRK2 (Homo sapiens) (UniProt Q86Y07)
Serine/threonine-protein kinase VRK2 (Homo sapiens), sequence (Q86Y07 whole entry): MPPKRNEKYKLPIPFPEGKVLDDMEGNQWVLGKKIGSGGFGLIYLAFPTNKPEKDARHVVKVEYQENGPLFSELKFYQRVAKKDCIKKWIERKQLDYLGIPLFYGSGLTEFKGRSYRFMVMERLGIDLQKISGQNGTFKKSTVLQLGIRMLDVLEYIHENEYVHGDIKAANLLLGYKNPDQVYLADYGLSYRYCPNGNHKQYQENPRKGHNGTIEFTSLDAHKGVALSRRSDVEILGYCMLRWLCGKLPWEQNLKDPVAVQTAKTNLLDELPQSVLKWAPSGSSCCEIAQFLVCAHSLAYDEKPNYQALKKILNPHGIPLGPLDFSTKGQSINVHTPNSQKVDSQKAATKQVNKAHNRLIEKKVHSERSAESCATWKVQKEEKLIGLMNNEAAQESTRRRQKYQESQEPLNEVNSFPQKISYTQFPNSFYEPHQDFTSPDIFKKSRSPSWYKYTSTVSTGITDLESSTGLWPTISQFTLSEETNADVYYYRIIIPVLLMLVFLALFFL

[7] = target: Cyclin-dependent kinase 16 (Homo sapiens) (UniProt Q00536)
Cyclin-dependent kinase 16 (Homo sapiens), sequence (Q00536 whole entry): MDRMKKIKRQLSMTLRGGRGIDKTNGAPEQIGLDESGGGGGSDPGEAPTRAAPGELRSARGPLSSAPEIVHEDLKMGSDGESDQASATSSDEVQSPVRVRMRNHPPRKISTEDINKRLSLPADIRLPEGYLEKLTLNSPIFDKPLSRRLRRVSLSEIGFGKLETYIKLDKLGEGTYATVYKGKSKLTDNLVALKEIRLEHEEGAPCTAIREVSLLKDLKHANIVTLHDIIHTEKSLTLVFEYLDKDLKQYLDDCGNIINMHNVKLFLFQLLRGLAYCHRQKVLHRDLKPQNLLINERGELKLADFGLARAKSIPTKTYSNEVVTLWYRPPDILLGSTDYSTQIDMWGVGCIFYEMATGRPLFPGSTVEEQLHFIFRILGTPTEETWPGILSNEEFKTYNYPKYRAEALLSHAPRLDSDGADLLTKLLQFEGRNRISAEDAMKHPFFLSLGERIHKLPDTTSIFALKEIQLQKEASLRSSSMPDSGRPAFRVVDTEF

[8] = target: Calcium/calmodulin-dependent protein kinase type 1D (Homo sapiens) (UniProt Q8IU85)
Calcium/calmodulin-dependent protein kinase type 1D (Homo sapiens), sequence (Q8IU85 whole entry, looked up): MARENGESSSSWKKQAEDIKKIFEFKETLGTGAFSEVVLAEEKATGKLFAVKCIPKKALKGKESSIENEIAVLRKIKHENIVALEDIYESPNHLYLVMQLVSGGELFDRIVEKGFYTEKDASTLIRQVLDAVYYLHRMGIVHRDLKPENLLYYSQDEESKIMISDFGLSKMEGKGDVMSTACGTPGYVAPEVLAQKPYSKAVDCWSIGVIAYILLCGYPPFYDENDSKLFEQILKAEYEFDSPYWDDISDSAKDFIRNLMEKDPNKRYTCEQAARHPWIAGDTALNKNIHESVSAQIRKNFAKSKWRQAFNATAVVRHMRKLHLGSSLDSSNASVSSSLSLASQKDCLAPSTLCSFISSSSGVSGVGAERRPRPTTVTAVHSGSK

[9] = target: TRAF2 and NCK-interacting protein kinase (Homo sapiens) (UniProt Q9UKE5)
TRAF2 and NCK-interacting protein kinase (Homo sapiens), sequence (Q9UKE5 whole entry, looked up): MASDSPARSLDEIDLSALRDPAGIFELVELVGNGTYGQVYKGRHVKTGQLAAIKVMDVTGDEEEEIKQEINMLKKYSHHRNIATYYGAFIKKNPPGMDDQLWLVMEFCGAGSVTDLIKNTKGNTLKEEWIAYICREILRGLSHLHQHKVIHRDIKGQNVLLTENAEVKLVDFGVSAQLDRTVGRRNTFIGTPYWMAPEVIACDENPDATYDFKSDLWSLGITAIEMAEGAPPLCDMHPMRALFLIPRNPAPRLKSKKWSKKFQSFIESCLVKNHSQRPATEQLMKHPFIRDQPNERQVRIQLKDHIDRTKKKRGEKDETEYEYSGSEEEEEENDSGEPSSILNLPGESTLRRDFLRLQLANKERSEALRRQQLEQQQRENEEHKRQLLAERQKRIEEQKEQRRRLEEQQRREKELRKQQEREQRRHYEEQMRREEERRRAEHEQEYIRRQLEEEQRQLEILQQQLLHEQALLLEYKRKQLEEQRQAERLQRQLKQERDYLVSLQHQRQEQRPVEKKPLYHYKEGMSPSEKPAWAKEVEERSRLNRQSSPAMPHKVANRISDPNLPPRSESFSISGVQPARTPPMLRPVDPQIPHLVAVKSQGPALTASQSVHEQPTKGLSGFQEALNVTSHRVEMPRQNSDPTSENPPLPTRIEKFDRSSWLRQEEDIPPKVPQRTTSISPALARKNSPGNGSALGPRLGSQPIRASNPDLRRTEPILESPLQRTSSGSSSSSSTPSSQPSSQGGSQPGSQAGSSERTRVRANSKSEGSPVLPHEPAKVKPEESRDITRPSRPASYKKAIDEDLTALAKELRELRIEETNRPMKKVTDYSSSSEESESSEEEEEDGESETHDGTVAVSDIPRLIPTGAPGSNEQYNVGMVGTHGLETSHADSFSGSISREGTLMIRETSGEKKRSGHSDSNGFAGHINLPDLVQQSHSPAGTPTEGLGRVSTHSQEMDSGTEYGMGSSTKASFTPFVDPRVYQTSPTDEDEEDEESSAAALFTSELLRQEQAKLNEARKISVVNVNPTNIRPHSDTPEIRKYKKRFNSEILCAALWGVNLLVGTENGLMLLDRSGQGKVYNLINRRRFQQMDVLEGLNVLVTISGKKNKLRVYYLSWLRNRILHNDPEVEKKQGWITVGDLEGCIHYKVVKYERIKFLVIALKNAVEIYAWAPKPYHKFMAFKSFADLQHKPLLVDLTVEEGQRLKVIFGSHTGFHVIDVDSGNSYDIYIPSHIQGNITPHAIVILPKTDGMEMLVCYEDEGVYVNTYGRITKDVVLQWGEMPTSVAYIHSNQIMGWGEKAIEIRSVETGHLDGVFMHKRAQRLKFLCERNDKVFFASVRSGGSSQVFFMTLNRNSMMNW

[10] = target: T2, Serine/threonine-protein kinase PLK4 (Homo sapiens) (UniProt O00444)
T2 sequence (whole entry): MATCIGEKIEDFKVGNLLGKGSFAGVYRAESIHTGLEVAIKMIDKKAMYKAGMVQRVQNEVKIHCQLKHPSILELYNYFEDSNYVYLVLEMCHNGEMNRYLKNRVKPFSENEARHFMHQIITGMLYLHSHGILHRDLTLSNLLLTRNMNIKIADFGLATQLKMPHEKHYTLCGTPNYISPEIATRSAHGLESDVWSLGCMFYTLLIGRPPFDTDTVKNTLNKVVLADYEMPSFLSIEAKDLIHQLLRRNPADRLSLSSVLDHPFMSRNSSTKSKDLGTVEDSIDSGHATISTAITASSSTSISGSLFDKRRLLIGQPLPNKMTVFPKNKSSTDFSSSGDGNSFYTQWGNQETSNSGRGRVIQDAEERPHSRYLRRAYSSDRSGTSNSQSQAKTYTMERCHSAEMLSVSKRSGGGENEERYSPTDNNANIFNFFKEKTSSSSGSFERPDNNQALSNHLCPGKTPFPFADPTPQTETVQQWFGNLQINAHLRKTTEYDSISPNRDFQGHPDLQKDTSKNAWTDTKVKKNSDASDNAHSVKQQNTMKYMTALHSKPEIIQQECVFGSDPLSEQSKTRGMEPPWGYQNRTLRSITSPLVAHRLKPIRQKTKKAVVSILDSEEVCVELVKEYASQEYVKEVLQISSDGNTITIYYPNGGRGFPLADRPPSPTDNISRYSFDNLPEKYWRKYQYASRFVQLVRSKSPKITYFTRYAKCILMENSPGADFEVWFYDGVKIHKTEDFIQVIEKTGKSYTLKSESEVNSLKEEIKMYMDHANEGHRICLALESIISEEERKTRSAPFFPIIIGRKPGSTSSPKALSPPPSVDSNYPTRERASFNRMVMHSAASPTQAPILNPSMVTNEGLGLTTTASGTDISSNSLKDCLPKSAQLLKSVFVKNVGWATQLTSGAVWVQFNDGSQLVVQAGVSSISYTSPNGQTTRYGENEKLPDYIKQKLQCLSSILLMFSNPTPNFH

[11] = target: Calcium/calmodulin-dependent protein kinase type II subunit delta (Homo sapiens) (UniProt Q13557)
Calcium/calmodulin-dependent protein kinase type II subunit delta (Homo sapiens), sequence (Q13557 whole entry): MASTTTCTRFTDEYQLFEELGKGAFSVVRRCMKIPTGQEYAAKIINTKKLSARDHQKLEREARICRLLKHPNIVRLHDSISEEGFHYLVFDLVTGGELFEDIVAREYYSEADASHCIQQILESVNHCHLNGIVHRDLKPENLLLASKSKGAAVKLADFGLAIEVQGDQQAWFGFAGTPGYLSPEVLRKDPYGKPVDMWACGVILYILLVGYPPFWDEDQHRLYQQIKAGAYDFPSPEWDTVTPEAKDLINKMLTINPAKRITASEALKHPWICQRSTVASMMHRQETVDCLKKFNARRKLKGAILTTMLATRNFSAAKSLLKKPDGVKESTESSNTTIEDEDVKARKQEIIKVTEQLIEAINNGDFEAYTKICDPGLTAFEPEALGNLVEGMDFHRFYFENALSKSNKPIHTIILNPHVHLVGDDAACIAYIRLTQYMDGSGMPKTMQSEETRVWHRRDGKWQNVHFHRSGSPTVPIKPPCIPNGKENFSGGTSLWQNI

[12] = target: Cyclin-dependent kinase 6 (Homo sapiens) (UniProt Q00534)
[13] = target: Mitogen-activated protein kinase 6 (Homo sapiens) (UniProt Q16659)
Mitogen-activated protein kinase 6 (Homo sapiens), sequence (Q16659 whole entry, canonical isoform): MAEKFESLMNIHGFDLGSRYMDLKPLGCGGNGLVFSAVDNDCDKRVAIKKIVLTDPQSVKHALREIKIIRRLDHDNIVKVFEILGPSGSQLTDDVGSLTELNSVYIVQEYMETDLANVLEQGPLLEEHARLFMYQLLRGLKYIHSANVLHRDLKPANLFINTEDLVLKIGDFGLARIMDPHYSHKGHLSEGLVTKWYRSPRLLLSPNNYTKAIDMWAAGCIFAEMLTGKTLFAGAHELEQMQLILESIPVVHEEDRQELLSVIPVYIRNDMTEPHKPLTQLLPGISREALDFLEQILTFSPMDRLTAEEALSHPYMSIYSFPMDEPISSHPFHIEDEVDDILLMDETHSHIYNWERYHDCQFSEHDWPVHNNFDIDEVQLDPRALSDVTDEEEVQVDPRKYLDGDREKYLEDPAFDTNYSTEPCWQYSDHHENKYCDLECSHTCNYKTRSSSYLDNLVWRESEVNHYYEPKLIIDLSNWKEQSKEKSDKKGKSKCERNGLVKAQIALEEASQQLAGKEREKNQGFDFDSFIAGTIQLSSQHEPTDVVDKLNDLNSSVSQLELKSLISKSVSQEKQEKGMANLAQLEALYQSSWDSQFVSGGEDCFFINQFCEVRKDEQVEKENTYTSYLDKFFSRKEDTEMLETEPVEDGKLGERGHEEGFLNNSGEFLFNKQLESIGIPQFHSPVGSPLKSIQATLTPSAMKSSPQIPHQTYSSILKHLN

[14] = target: Casein kinase I isoform gamma-1 (Homo sapiens) (UniProt Q9HCP0)
[15] = target: Cyclin-dependent kinase 2 (Homo sapiens, UniProt P24941)
[16] = target: Serine/threonine-protein kinase pim-3 (Homo sapiens) (UniProt Q86V86)

Death-associated protein kinase 3 (Homo sapiens), sequence (O43293 whole entry, looked up): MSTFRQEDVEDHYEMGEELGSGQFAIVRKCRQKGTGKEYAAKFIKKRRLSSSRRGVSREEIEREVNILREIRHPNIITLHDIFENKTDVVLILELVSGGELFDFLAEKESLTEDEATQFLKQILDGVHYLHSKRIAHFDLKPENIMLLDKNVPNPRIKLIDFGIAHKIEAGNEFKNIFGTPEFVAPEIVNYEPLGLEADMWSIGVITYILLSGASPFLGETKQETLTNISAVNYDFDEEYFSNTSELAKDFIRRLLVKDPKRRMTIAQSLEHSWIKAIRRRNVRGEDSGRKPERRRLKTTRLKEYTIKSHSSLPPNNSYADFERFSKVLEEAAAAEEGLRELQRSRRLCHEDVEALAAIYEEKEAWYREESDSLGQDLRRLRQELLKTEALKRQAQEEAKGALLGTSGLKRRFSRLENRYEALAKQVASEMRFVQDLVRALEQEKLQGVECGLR

Structure (SMILES) | ΔTm [1] | ΔTm [2] | ΔTm [3] | ΔTm [4] | ΔTm [5] | ΔTm [6] | ΔTm [7] | ΔTm [8] | ΔTm [9] | ΔTm [10] | ΔTm [11] | ΔTm [12] | ΔTm [13] | ΔTm [14] | ΔTm [15] | ΔTm [16]
O=c1c(-c2ccc(F)cc2)c(-c2ccncc2)[nH]n1-c1ccc(Cl)cc1 | 0.6 °C | 0.8 °C | 0.1 °C | 7.1 °C | 0.8 °C | 0.7 °C | 0.3 °C | 0.1 °C | -0.2 °C | 1 °C | 0.1 °C | 0.6 °C | 0.7 °C | 0.5 °C | 0.2 °C | 0.5 °C
O=[N+]([O-])c1ccc(-c2nc(-c3ccc(F)cc3)c(-c3ccncc3)[nH]2)cc1 | 0.1 °C | 0 °C | 0.5 °C | 14.8 °C | 0.1 °C | 1.5 °C | -0.9 °C | 0.2 °C | 4.6 °C | 1.8 °C | 0.1 °C | 0.9 °C | 0.4 °C | 3 °C | 1.8 °C | 0.7 °C
Nc1ncnc2c1c(I)cn2[C@@H]1O[C@H](CO)[C@@H](O)[C@H]1O | 2.9 °C | 0.1 °C | 3.9 °C | -0.4 °C | 5.6 °C | 0.1 °C | 0.1 °C | 0.2 °C | 1.6 °C | 2.9 °C | -0.4 °C | -0.2 °C | -0.1 °C | 2.5 °C | 2.9 °C | 1.5 °C
Ic1cccc(CSc2nnc(-c3ccncc3)o2)c1 | 0.2 °C | -0.2 °C | 0.2 °C | -0.4 °C | 1.7 °C | -0.3 °C | -0.8 °C | -0.3 °C | -0.3 °C | 0.1 °C | -0.2 °C | -0.2 °C | -0.2 °C | 0.6 °C | -0.3 °C | 0.2 °C
O=Nc1c(-c2c(O)[nH]c3ccccc23)[nH]c2ccccc12 | 1.2 °C | 0.1 °C | 5.1 °C | 0.7 °C | 1.5 °C | 3.1 °C | 3.2 °C | 1.1 °C | 5.9 °C | 8.9 °C | 2.8 °C | 3.3 °C | 0.1 °C | -0.3 °C | 6.6 °C | 6.4 °C
N#C/C(=C\c1ccc(O)c(O)c1)C(=O)NCc1ccccc1 | 1.8 °C | 0.4 °C | 0.4 °C | 0.4 °C | 0.7 °C | 0.2 °C | -0.6 °C | 0.2 °C | 0.8 °C | 0.9 °C | 0.3 °C | 0.4 °C | 0.4 °C | 0.4 °C | 0.9 °C | 3.1 °C
CCOc1cc(/C=C(\C#N)C(N)=O)cc(CSc2ccccc2)c1O | 0.1 °C | -0.1 °C | 1 °C | -0.3 °C | 0.2 °C | 0.1 °C | -0.5 °C | -0.2 °C | 0.2 °C | 2.8 °C | -0.2 °C | 0 °C | 0.1 °C | 0.2 °C | 0.8 °C | 1.5 °C
CC(C)c1cc(/C=C(\C#N)C(=O)NCCCc2ccccc2)cc(C(C)C)c1O | 0.7 °C | 1 °C | 0.5 °C | 0.1 °C | 1.3 °C | 0.7 °C | -0.1 °C | 1.1 °C | 0 °C | 0.9 °C | 1 °C | 0.3 °C | 1.3 °C | 0.8 °C | 1.2 °C | 0.3 °C
CC(C)n1cnc2c(NCc3ccccc3)nc(NCCCO)nc21 | 0.7 °C | -0.1 °C | 0.6 °C | 0.1 °C | 2.2 °C | 1.2 °C | -0.5 °C | 0.1 °C | 0.4 °C | 0.3 °C | -0.1 °C | 0.2 °C | -0.3 °C | 1.4 °C | 0.9 °C | 1 °C
